{
  "source": "patent EP0406297B1",
  "about": "“Medical use of neuropeptide Antagonist G” (IMPERIAL CANCER RESEARCH TECHNOLOGY LIMITED, priority 1988, dated 1996)",
  "key": {"Swiss 3T3 cells [1]": {"tested_on": "Swiss 3T3 cells", "assay": "GRP-induced DNA synthesis ([3H]thymidine incorporation) in quiescent Swiss 3T3 cells", "assay_type": "cell-based, murine"}, "Swiss 3T3 cells [2]": {"tested_on": "Swiss 3T3 cells", "assay": "vasopressin-stimulated DNA synthesis in Swiss 3T3 cells", "assay_type": "cell-based, murine"}, "[3]": {"tested_on": "small cell lung cancer (SCLC) cell line", "assay": "growth in vitro of small cell lung cancer cell lines", "assay_type": "cell-based", "procedure": "The ability of antagonists A, D and G to inhibit the growth in vitro of a small cell lung cancer (SCLC) cell line was tested. The cell lines used were • a) H69 and H128 from the ATCC in Maryland USA; • b) H209, H345 and H510A obtained from Dr. A. Gazdar at NCI, NIH, Maryland USA; • c) UCH25 from Dr. P. Beverley, University College, London, England."}, "SCLC cell lines": {"tested_on": "SCLC cell lines", "assay": "calcium mobilisation tests in SCLC cell lines", "assay_type": "cell-based", "settings": "20 µM", "procedure": "These responses can be blocked by 20 µM antagonist D in 3 of 3 lines tested (H69, H345, H510A) and by 20 µM antagonist G in H510A."}, "Swiss 3T3 cells [4]": {"tested_on": "Swiss 3T3 cells", "settings": "for IC50: read-out: IC50 for inhibition of mitogenesis induced by bradykinin, 9.4 nM bradykinin, 1 µg/ml insulin"}, "Swiss 3T3 cells [5]": {"tested_on": "Swiss 3T3 cells", "settings": "cited from earlier work"}, "vasopressin receptor": {"tested_on": "vasopressin receptor", "settings": "Swiss 3T3 cells; cited from earlier work"}, "bombesin receptor": {"tested_on": "bombesin receptor", "settings": "Swiss 3T3 cells; cited from earlier work"}, "Swiss 3T3 cells [6]": {"tested_on": "Swiss 3T3 cells", "assay": "specificity: DNA synthesis with a variety of other mitogens in Swiss 3T3 cells", "assay_type": "cell-based, murine"}, "Swiss 3T3 cells [7]": {"tested_on": "Swiss 3T3 cells", "settings": "earlier patent application and references 10, 11; cited from earlier work"}},
  "note": "Residues, ends and D or L forms follow the SMILES beside them.",
  "data": [
    {"molecule": "CSCC[C@H](NC(=O)[C@H](CC(C)C)NC(=O)[C@@H](Cc1c[nH]c2ccccc12)NC(=O)[C@H](Cc1ccccc1)N(C)C(=O)[C@@H](Cc1c[nH]c2ccccc12)NC(=O)[C@@H](N)CCCNC(=N)N)C(N)=O", "note": "[antagonist G, Arg.D-Trp.MePhe.D-Trp-Leu-Met-NH2] (HELM PEPTIDE1{R.[dW].[meF].[dW].L.M.[am]}$$$$V2.0)", "values": [
      {"measurement": "potency as antagonist of growth induced by GRP, compared with Antagonist D", "setting": "Swiss 3T3 cells [1]", "result": "less potent"},
      {"measurement": "potency as antagonist of vasopressin induced cell growth, compared with Antagonist D", "setting": "Swiss 3T3 cells [2]; Swiss 3T3 cells", "result": "as potent as Antagonist D"},
      {"measurement": "inhibition of growth in SCLC cells, compared with antagonist D", "setting": "[3]; H69, H209, H345 and H510A", "result": "equipotent with antagonist D"},
      {"measurement": "cell lines in which growth inhibition was found, of cell lines tested", "setting": "[3]; SCLC cell lines", "result": "4 of 4"},
      {"measurement": "transient elevation of intracellular [Ca2+] in response to bradykinin, GRP and vasopressin", "setting": "SCLC cell lines; H510A", "result": "blocked"},
      {"measurement": "potency as antagonist of growth induced by bradykinin, compared with Antagonist D", "setting": "Swiss 3T3 cells [4]; Swiss 3T3 cells", "result": "less potent"}
    ]},
    {"molecule": "CC(C)C[C@H](NC(=O)[C@H](CC(C)C)NC(=O)[C@@H](Cc1c[nH]c2ccccc12)NC(=O)[C@H](Cc1ccccc1)NC(=O)[C@@H](Cc1c[nH]c2ccccc12)NC(=O)[C@H](CCC(N)=O)NC(=O)[C@H](CCC(N)=O)NC(=O)[C@@H]1CCCN1C(=O)[C@H](CCCCN)NC(=O)[C@H]1CCCN1C(=O)[C@H](N)CCCNC(=N)N)C(N)=O", "note": "[antagonist A, D-Arg-D-Pro-Lys-Pro-Gln-Gln-D-Trp-Phe-D-Trp-Leu-Leu-NH2] (HELM PEPTIDE1{[dR].[dP].K.P.Q.Q.[dW].F.[dW].L.L.[am]}$$$$V2.0)", "values": [
      {"measurement": "concentrations effective in inhibiting growth of SCLC", "setting": "[3]; H69, H82, H128, H417 and UCH25", "result": "50 to 150", "unit": "µM"},
      {"measurement": "cell lines in which growth inhibition was found, of cell lines tested", "setting": "[3]; SCLC cell lines", "result": "5 of 5"},
      {"measurement": "IC50", "setting": "Swiss 3T3 cells [4]", "result": 90, "unit": "µM"},
      {"measurement": "inhibition of vasopressin-stimulated DNA synthesis", "setting": "Swiss 3T3 cells [5]", "result": "inhibit"},
      {"measurement": "inhibition of [3H]vasopressin binding", "setting": "vasopressin receptor", "result": "inhibit"}
    ]},
    {"molecule": "Arg-Pro-Lys-Pro-Gln-Gln-Phe-Phe-Gly-Leu-Met-NH2 [substance P]", "values": [
      {"measurement": "binding of [125I]GRP", "setting": "bombesin receptor", "result": "neither inhibits"}
    ]},
    {"molecule": "CC(C)C[C@H](NC(=O)[C@H](CC(C)C)NC(=O)[C@@H](Cc1c[nH]c2ccccc12)NC(=O)[C@H](Cc1ccccc1)NC(=O)[C@@H](Cc1c[nH]c2ccccc12)NC(=O)[C@H](CCC(N)=O)NC(=O)[C@@H](Cc1ccccc1)NC(=O)[C@@H]1CCCN1C(=O)[C@H](CCCCN)NC(=O)[C@@H]1CCCN1C(=O)[C@H](N)CCCNC(=N)N)C(N)=O", "note": "[antagonist D, D-Arg-Pro-Lys-Pro-D-Phe-Gln-D-Trp-Phe-D-Trp-Leu-Leu-NH2] (HELM PEPTIDE1{[dR].P.K.P.[dF].Q.[dW].F.[dW].L.L.[am]}$$$$V2.0)", "values": [
      {"measurement": "inhibition of vasopressin-induced DNA synthesis", "setting": "Swiss 3T3 cells [2]; 20 µM antagonist D, LψLB at concentrations that strongly inhibited GRP-induced mitogenesis (1 µM)", "result": "potent inhibitor"},
      {"measurement": "inhibition of mitogenesis stimulated by EGF, PDGF, phorbol dibutyrate, cholera toxin and 8-bromo-cAMP", "setting": "Swiss 3T3 cells [6]", "result": "Neither of them inhibited"},
      {"measurement": "effect against various bombesin-like peptides (DNA synthesis)", "setting": "Swiss 3T3 cells [6]; GRP 3.6 nM, bombesin 1.2 nM, litorin 1.8 nM, 20 µM antagonist D or 1 µM LψLB", "result": "effective"},
      {"measurement": "inhibition of mitogenesis stimulated by VIP", "setting": "Swiss 3T3 cells [6]; VIP 3.0 nM, 20 µM antagonist D or 1 µM LψLB", "result": "Neither antagonist D nor [Leu^13-ψ(CH2NH)Leu^14]bombesin inhibited"},
      {"measurement": "increase in potency against each mitogen relative to antagonist A", "setting": "Swiss 3T3 cells [6]; mitogens bombesin/GRP, bradykinin, vasopressin", "result": "5-10 fold"},
      {"measurement": "potency in inhibiting growth of SCLC relative to Antagonist A", "setting": "[3]", "result": "5-10 fold"},
      {"measurement": "cell lines in which growth inhibition was found, of cell lines tested", "setting": "[3]; SCLC cell lines", "result": "6 of 6"},
      {"measurement": "concentration that abolishes cell growth", "setting": "[3]; SCLC cell lines", "result": "40 to 50", "unit": "µM"},
      {"measurement": "SCLC lines in which the Ca2+ responses were blocked, of lines tested", "setting": "SCLC cell lines", "result": "3 of 3"},
      {"measurement": "transient elevation of intracellular [Ca2+] in response to bradykinin, GRP and vasopressin", "setting": "SCLC cell lines; H69, H345, H510A", "result": "blocked"},
      {"measurement": "IC50", "setting": "Swiss 3T3 cells [4]", "result": 8.3, "unit": "µM"},
      {"measurement": "potency as bombesin antagonist relative to antagonist A", "setting": "Swiss 3T3 cells [7]", "result": "5-10 fold"},
      {"measurement": "inhibition of vasopressin-stimulated DNA synthesis", "setting": "Swiss 3T3 cells [5]", "result": "inhibit"},
      {"measurement": "inhibition of [3H]vasopressin binding", "setting": "vasopressin receptor", "result": "inhibit"}
    ]}
  ]
}
